In US20120245044A1, “METHODS OF DETERMINING CHEMOTHERAPY RESPONSE IN CANCER” (TRANSLATIONAL GENOMICS RESEARCH INSTITUTE, priority 2011, published 2012):

Assays:
Format in all cases: cell-based
[1] = test system: H69-GLI2 versus H69-wt SCLC cells; test: Drug dose response, cell viability after 72 hours; conditions: single agent, experiment H69-GLI1 and H69-GLI2 versus H69-wt (FIG. 1A/1B)
Method: (§1) (A) Drug-dose response experiment in H69-GLI1 and H69-GLI2 versus H69-wt for cisplatin. […] (C) Drug-dose response experiment in H69-GLI1 versus H69-wt for cisplatin. Methods. Two SCLC cell lines, H69 and H526, were transduced with a GLI1 over-expressing (o/e) vector (Kasper et al, 2007) to create two lines expressing the gene: H69-GLI1 and H526-GLI1. GLI1 expression was verified by qRT-PCR. Cellular proliferation was measured over a 96-hour period. To study the drug dose response, GLI1 o/e and parental lines were treated with single-agent or combination dosing of cisplatin and etoposide, and cell viability was assessed after 72 hours. Relative GLI1 expression was compared with cisplatin response in four additional SCLC cell lines (H146, […], […]). Gene expression analysis was performed on H69-GLI1 and H69 parental cells, with two replicates for each, using Agilent (Agilent Technologies, Santa Clara, Calif.) 44K expression arrays. Data was normalized and analyzed using Genespring software (Agilent Technologies, Santa Clara, Calif.).

[2] = test system: H69-GLI1 versus H69-wt SCLC cells; test: Drug dose response, cell viability after 72 hours, GLI1 over-expressing vs parental line
Method: as §1

[3] = test system: H526-GLI1 versus H526-wt SCLC cells; test: as above; conditions: H526-GLI1 compared to H526-wt
Method: Methods. Two SCLC cell lines, H69 and H526, were transduced with a GLI1 over-expressing (o/e) vector (Kasper et al, 2007) to create two lines expressing the gene: H69-GLI1 and H526-GLI1. GLI1 expression was verified by qRT-PCR. Cellular proliferation was measured over a 96-hour period. To study the drug dose response, GLI1 o/e and parental lines were treated with single-agent or combination dosing of cisplatin and etoposide, and cell viability was assessed after 72 hours. Relative GLI1 expression was compared with cisplatin response in four additional SCLC cell lines (H146, […], […]). Gene expression analysis was performed on H69-GLI1 and H69 parental cells, with two replicates for each, using Agilent (Agilent Technologies, Santa Clara, Calif.) 44K expression arrays. Data was normalized and analyzed using Genespring software (Agilent Technologies, Santa Clara, Calif.).

[4] = single agent, experiment H69-GLI1 and H69-GLI2 versus H69-wt (FIG. 1A/1B), viability after 72 hours

Row | SMILES | fold change between H69-GLI2 and H69-wt in drug-dose response [1] | fold change between H69-GLI1 and H69-wt in drug-dose response [2, 4] | change in cisplatin resistance [3] | shift in cisplatin resistance ([2]; H69-GLI1 compared to H69-wt, drug dose response, FIG. 1) | fold change between H69-GLI1 and H69-wt in drug-dose response ([2]; experiment H69-GLI1 versus H69-wt only (FIG. 1C))
1 | COc1cc([C@@H]2c3cc4c(cc3[C@@H](O[C@@H]3O[C@@H]5CO[C@@H](C)O[C@H]5[C@H](O)[C@H]3O)[C@H]3COC(=O)[C@H]23)OCO4)cc(OC)c1O [etoposide] | 1.76 fold | 4.55 fold |  |  | 
2 | N.N.[Cl][Pt][Cl] [cisplatin, cis-diamminedichloroplatinum(II)] | 1.21 fold | 1.76 fold | no significant change | ≥ 1.5 fold | 2.77 fold
